Test results: patent publication US20130029937A1, “TREATMENT OF SURFACTANTS” (SOLAEROMED INC., priority 2007, published 2013)

Tests used:
[1] = murine model of acute lung injury (acid injury), MβCD aerosol, surfactant function; format: in vivo, mice
From the text: In this study, a murine model of acute lung injury (ALI), the earliest phase of ARDS, was created by acid injury of the lung according to published procedures (Allen, G. B. et al. Neither fibrin nor plasminogen activator inhibitor-1 deficiency protects lung function in a mouse model of acute lung injury. American Journal of Physiology-Lung Cellular and Molecular Physiology 296, L277-L285 (2009)) and analyzed with respect to lung mechanics, oxygenation, lung histology, lung ultrastructure, surfactant function and composition (FIGS. 3A-E). Elastance (or its inverse, compliance) and pressure-volume curves are commonly used to assess lung function in ALI/ARDS (JONSON, B. et al. Pressure-volume curves and compliance in acute lung injury. American journal of respiratory and critical care medicine 159, 1172-1178 (1999)).

[2] = captive bubble surfactometer (CBS), oxidized BLES with added cholesterol; format: physicochemical, cattle; conditions: MβCD (20 mmol) in the aqueous phase
Experimental: In a model study, 0, 5 and 10 weight percent cholesterol was added to a ROS-exposed cattle lipid surfactant extract as an example of how even a normal (physiological) amount of cholesterol renders surfactant exposed to ROS and its derivatives dysfunctional; the function of the surfactant model was determined in a captive bubble surfactometer (CBS).
Surface activity of surfactant was determined with a computer-controlled captive bubble surfactometer (CBS) as described in detail by Gunasekara et al. (Gunasekara L, Schoel W M, Schürch S & Amrein M W (2008) A comparative study of mechanisms of surfactant inhibition. BBA—Biomembranes 1778: 433-444), with two important changes: 1) A transparent capillary was used to deposit a ˜1.0 μL bolus of 27 mg/mL surfactant near the air-buffer interface. The quantity and concentration of surfactant were chosen to minimize effects caused by insufficient surfactant or bulk phase adsorption. This amount of native BLES reliably reproduces minimum and maximum surface tensions as measured in situ at functional reserve capacity and total lung capacity (<1 mN/m and ˜30 mN/m, respectively) (Bachofen H & Schtirch S (2001) Alveolar surface forces and lung architecture. Comparative Biochemistry and Physiology—Part A: Molecular & Integrative Physiology 129: 183-193). […]

[3] = CBS dynamic cycling of BLES with added (oxidized) phospholipids; format: physicochemical, bovine; conditions: non-oxidized lipid in BLES containing cholesterol, exposure to ambient air
From the text: In this Example, the role of oxidized polyunsaturated phospholipids in causing cholesterol-dependent surfactant dysfunction was studied. Oxidation of surfactant by the Fenton-like reaction or in the presence of ROS in the inflamed lung results in the formation of lipid-peroxides with polyunsaturated phospholipids the principal target. […] This introduction of a hydrophilic group in the formerly hydrophobic region will disrupt lipid packing. […] This is consistent with peroxidized PLPC, CL and other polyunsaturated phospholipids present in surfactant causing dysfunction together with cholesterol. […]
To ensure accurate mixing, additional lipids were added to lipid extracts of BLES or oxBLES as organic solutions. […] Phospholipid concentration was assessed using a phosphate assay (Gentaur Molecular Products, Kampenhout, Belgium) after liberation of free phosphate (Duck-Chong C G (1979) A rapid sensitive method for determining phospholipid phosphorus involving digestion with magnesium nitrate. Lipids 14: 492-497). […] BLES contained 2.60% cholesterol (w/w phospholipids) as determined using an enzymatic assay for cholesterol (Amplex Red Cholesterol Assay, Invitrogen, Eugene, Oreg., USA). hSP-A was added to dried films when indicated to a final concentration of 5% (w/w phospholipids). […]

Compound | surfactant function in vivo ([1]; in the lung, given as an aerosol) | minimum surface tension of surfactant ([1]; injured mice treated with an MβCD-aerosol) [mN/m] | surface tension [2] | surfactant function over time [3]
methyl-β-cyclodextrin [MβCD] | can restore surfactant function | < 10 | almost zero | –
CCCCC/C=C\C/C=C\CCCCCCCC(=O)OC[C@H](COP(=O)(O)OCC(O)COP(=O)(O)OC[C@H](COC(=O)CCCCCCC/C=C\C/C=C\CCCCC)OC(=O)CCCCCCC/C=C\C/C=C\CCCCC)OC(=O)CCCCCCC/C=C\C/C=C\CCCCC (some centres unmarked) [CL, 1′,3′-Bis[1,2-dilinoleoyl-sn-glycero-3-phospho]-sn-glycerol] | – | – | – | became dysfunctional after several hours
CCCCC/C=C\C/C=C\CCCCCCCC(=O)O[C@H](COC(=O)CCCCCCCCCCCCCCC)COP(=O)([O-])OCC[N+](C)(C)C [PLPC, 1-palmitoyl-2-linoleoyl-sn-glycero-3-phosphocholine] | – | – | – | became dysfunctional after several hours
